Assay results taken from patent publication US10111847B2, “Compounds and methods for modulating vascular injury” (The Regents of the University of California, priority 2012, dated 2018).

Tests used:
human sv-VSMCs = test: PDGF-BB induced transwell migration of sv-VSMCs (Maresin-1); type: cell-based; details: 1-100 nM; PDGF-BB 50 ng/ml; 15 hr
Procedure: MaR-1. VSMCs were serum starved for 1-2 days, then trypsinized and seeded in 8-μm-pore transwell inserts (Corning Glass Works, Corning, N.Y.) at a concentration of 30,000 cells per well. Cells were allowed to attach for 2 hr, then pretreated with Maresin-1 (1-100 nM) or vehicle (0.1% ethanol) control for 30 min before the addition of PDGF-BB (50 ng/ml; Sigma-Aldrich, St. Louis, Mo., USA) to the lower wells. 7S-Maresin-1 was added to both upper and lower wells for the full duration of chemotaxis experiment (15 hr). The membranes were fixed with methanol and cut out, mounted with DAPI, and migrated cells were counted under fluorescence microscope. Ten images per well were taken randomly under a 10× magnification and number of cells were counted in all the images to calculate mean for a given well.
VSMCs were pre-treated with vehicle or 7S-Maresin-1 for 30 min in a transwell insert before adding […] (50 ng/ml) to the outer chamber. Migrated VSMCs were fixed with methanol, stained with DAPI and counted under a fluorescent microscope.
FIGS. 20A-20D. Representative image of nine independent experiments. (A) Vehicle Control. (B) PDGF-BB, 50 ng/ml. (C) 7S-Maresin-1, 1 nm+PDGF-BB, 50 ng/ml. (D) 7S-Maresin-1, 100 nm+PDGF-BB, 50 ng/ml. (E) Graphical summary of nine independent experiments. P≤0.01, One-way ANOVA with Dunnett's post hoc test. *P<0.05 compared to […] (50 ng/ml). […]

rabbit femoral arteries = test: Rabbit femoral artery balloon injury, acute response at 3 days; type: in vivo, New Zealand White Rabbits
Procedure: All animal experiments are performed under a protocol approved by University of California San Francisco Animal Care Committee. New Zealand White Rabbits (NZWR, Western Oregon Rabbit Company, Philomath, Oreg.) weighing 3 to 5 kg and maintained on a normal chow diet are used in all experiments. Animals are anesthetized for surgical procedures with intramuscular injection of ketamine (25 mg/kg) and xylazine (5 mg/kg), and maintained with inhalation of isoflurane. The balloon injury model is made as described by Conte et al. “Efficient repopulation of denuded rabbit arteries with autologous genetically modified endothelial cells,” Circulation. 1994; 89:2161-2169. Rabbits undergo bilateral external iliac and femoral artery injury with 2F Fogarty balloon catheter (Applied Medical Resources Corp. Rancho Santa Margarita, Calif.). After balloon injury RvD2 (10 nM, Cayman chemical, Ann Arbor, Mich.) is infused to luminal area of the right femoral artery and control vehicle (normal saline with 0.1% ethanol) is infused to the left femoral artery, and then left undisturbed for 20 minutes. For evaluation of acute effects the rabbits are euthanized at 3 days after injury by intravenous overdose of sodium Nembutal. The femoral arteries are harvested and cryosection is made for immunohistochemistry, and total RNA from treated and control tissue is isolated. For evaluation of subacute responses regarding intimal hyperplasia the rabbits are euthanized at 28 days after injury and the tissue is perfusion-fixed in 10% formalin and processed as described by Conte et al. Arterioscler Thromb Vasc Biol. 2005; 25:2081-2087.
All the immunofluorescent staining is completed on 6-μm-thick frozen sections fixed by ice cold acetone for 10 minutes. Goat anti-mouse IgG conjugated with Alexa Fluor 488 or 568 (1:100, respectively, Invitrogen) is selected as secondary antibody. Anti-Ki67 (1:100, NCL-L-Ki67-MM1, Novocastra Laboratories, Newcastle upon Tyne, UK) is utilized for cell proliferation detection. […] The proportion of Ki67 is calculated by absolute positive cell number divided by DAPI positive nuclei. Leukocyte infiltration index is calculated as number of nuclei in CD45 positive area divided by total number of DAPI positive nuclei.
RvD1. […] Fluorescence was detected with TRITC filter allowing the detection of the DHE emission wavelength of 590-620 nm. The fluorescence lamp gain is standardized for all images and analyses. Fluorescence quantitation is performed using ImageJ analysis software (National Institute of Health, Bethesda, Md.). For VSMC the fluorescence intensity is determined for the DHE-stained control cells (no treatment control) from each experimental group and then individual treated cells from the same group are normalized to the corresponding value. […]

| SMILES | PDGF-BB induced migration in human sv-VSMCs (human sv-VSMCs) | Cell proliferation (Ki-67 staining index), % inhibition vs control (rabbit femoral arteries; 10 nM intraluminal 20 minutes, 3 days after injury, P<0.01) [%] | leukocyte infiltration (CD45 staining), % inhibition (rabbit femoral arteries; 10 nM intraluminal 20 minutes, 3 days after injury, P<0.05) [%] | TNF-α, MCP-1, and IL-1α expression in treated arteries vs vehicle (qPCR) (rabbit femoral arteries; 10 nM intraluminal, 3 days after injury) | injury-induced ROS production (DHE staining), % inhibition (rabbit femoral arteries; rabbit arteries 3 days after balloon injury, P<0.05) [%] |
| --- | --- | --- | --- | --- | --- |
| CC/C=C\C/C=C\C[C@H](O)\C=C/C=C/C=C/[C@@H](O)C/C=C\CCC(=O)O [7S-Maresin-1, 7S,14R-dihydroxydocosa-4Z,8E,10Z,12Z,16Z,19Z-hexaenoic acid] | Dose-Dependently Attenuates | – | – | – | – |
| CC/C=C\C[C@H](O)[C@H](O)/C=C/C=C/C=C\C=C\[C@@H](O)C/C=C\CCC(=O)O [RvD2, resolvin D2] | – | 51 | 41 | significant reductions | 43 |
